Data as given in paper PMC6271731, “Multitarget Molecular Hybrids of Cinnamic Acids” (Molecules, 2014).
pIC50: −log10 of the molar value.

How the values were obtained:
[1] = system: sciatic nerve crush; experiment: Flat runway test after sciatic nerve crush; type: in vivo, Wistar rats; set-up: key: 0: No movement; 1: Mild movement; 2: Walking with mild deficit; 3: Nearly normal; details: crushed animals treated with 2a, day 1 to day 21
Protocol: (§1) The locomotor function recovery was examined through the flat runway test, the inclined plane runway test, the grid walking test and the Sciatic Functional Index (SFI) calculation.
(§2) One day prior to the surgery and the behavioral testing, Wistar rats were handled by the investigators and introduced to the testing environment for a brief period of time. Rats were anesthetized with chloral hydrate 4.5% (1 mL/100 g). […] After the exposure, the nerve was crushed once for 30 s at standardized force. The muscle was reapproximated and the skin incision was closed using 6 to 0 sutures. The examination of the loss of sensory and motor function in the operated limb established the crush completeness. Digits in the operated limb were pinched with a blunt forceps. Absence of foot withdrawal and vocalization was recorded as loss of sensory and motor function. Animals were placed under a heating lamp until they recovered from the anesthesia and they returned to their home cages.
(§3) The tested solutions were freshly prepared on surgery day (day 0).
(§4) The animals were subjected to a locomotor testing one day before the surgery and on the 1st, 8th, 15th and 22nd day after the sciatic nerve injury. The day of the surgery is considered as day 0 [36, 37, 38].
Rats were trained to walk on a wooden board (1 m × 15 cm) for 120 s. The hindlimb movement was assessed with the scoring mentioned before.

[2] = Lipophilicity as RM values by RP-TLC; type: physicochemical; details: methanol/water 70/30, 24 °C, average of at least five measurements
Description: Since lipophilicity is a significant physicochemical property determining distribution, bioavailability, metabolic activity and elimination, we tried to determine experimentally the lipophilicity of the new substances by a RPTLC method as RM values (Table 1) and to compare them with the corresponding theoretically calculated clog p values in n-octanol-buffer. This is considered to be a reliable, fast and convenient method for expressing lipophilicity. Lipophilicity (Table 2), was theoretically calculated as Clog p values in n-octanol-buffer by the CLOGP Programme of Biobyte Corp..
Reversed phase TLC (RP-TLC) was performed on silica gel plates impregnated with 5% (v/v) liquid paraffin in light petroleum ether. The mobile phase was a methanol/water mixture (70/30, v/v). The plates were developed in closed chromatography tanks saturated with the mobile phase at 24 °C. Spots were detected under UV light. RM values were determined from the corresponding Rf values (from five individual measurements) using the equation RM = log [(1/Rf) − 1] (Table 1).

[3] = system: sciatic nerve crush; experiment: Recovery of motor and sensory functions after sciatic nerve crush; type: in vivo, Wistar rats; details: adult rats, intraperitoneally after the compression of the nerve
Protocol: as §1, §2, §3, §4

[4] = target: T1, soybean lipoxygenase (Glycine max, UniProt P08170); experiment: Soybean lipoxygenase inhibition in vitro; type: biochemical
T1 construct: purchased Sigma Chemical, Co. (St. Louis, MO, USA)
T1 sequence (P08170 1-839): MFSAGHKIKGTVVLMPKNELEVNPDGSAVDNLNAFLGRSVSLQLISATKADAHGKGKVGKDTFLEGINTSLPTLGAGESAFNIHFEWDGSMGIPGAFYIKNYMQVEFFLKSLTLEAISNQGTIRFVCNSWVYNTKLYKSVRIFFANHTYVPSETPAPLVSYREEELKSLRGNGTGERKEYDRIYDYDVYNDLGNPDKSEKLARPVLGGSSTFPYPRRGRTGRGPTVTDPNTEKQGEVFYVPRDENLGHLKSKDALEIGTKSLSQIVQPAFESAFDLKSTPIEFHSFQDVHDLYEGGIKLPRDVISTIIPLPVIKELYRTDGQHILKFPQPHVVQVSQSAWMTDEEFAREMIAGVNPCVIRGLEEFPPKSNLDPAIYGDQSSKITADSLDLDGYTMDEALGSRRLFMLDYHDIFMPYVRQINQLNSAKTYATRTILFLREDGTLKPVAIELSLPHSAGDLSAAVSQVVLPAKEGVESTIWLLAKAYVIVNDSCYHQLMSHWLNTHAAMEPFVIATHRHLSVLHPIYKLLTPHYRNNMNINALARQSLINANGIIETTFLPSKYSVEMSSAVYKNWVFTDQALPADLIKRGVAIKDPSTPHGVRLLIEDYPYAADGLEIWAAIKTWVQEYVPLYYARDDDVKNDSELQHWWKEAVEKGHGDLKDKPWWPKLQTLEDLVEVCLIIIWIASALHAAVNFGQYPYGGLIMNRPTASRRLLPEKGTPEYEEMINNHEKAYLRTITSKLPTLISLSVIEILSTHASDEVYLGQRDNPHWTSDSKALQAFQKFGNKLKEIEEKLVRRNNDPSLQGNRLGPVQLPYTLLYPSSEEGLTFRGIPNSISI
Protocol: DMSO solution of the tested compound was incubated with sodium linoleate (0.1 mM) and 0.2 mL of soybean lipoxygenase solution (1/9 × 10^−4 w/v in saline) in buffer pH 9 (tris) and at room temperature. […] The results are given in Table 1 expressed as IC50 values or % inhibition at 100 μM.

[5] = system: sciatic nerve crush; experiment: Sciatic Functional Index after sciatic nerve crush; type: in vivo, Wistar rats
Description: SFI is the current standard for measuring functional recovery following rat sciatic nerve crush. Its calculation involves the measurement of wide-ranging relationships between feet and toes of the hindlimb of recovering animals. SFI values close to −100 indicate severe damage, while SFI values close to 0 indicate normal function. The treated rats improved their walk and the relationship between feet and toes of the crushed hindlimbs starting from day 14 to day 21.
as §2, §3
[…] The day of the surgery is considered as day 0 [36, 37, 38].
In the present study, the plantar surfaces of the hindlimbs of the rats were impregnated with ink and then the animals were allowed to walk on a paper along a corridor, leaving footprints during walking.
A wooden corridor (1 m × 8 cm) with raised sidewalls was used. Two and a half white paper strips (40 × 7.5 cm) were placed along the corridor and were fixed with adhesive tape closely together and at the base and the sidewalls of the corridor. Each rat was trained to walk steadily along the corridor without stops until it made three at least successful efforts of continuous walking. The footprints were allowed to dry and were then converted into digital images using a computer and a high resolution scanner. The image processing was done by using the ImageJ. This is an open-source image analysis software created in 1997 by Rayne Rasband (National Institute of Health), widely used in medical applications, especially neuroscience, for measuring distances and surface and plotting the data. The footprints were analyzed as described by Bain et al. in measurements were included: • (i) print length (PL): distance from the heel to the third toe, • (ii) toe spread (TS) distance from the first to the fifth toe on both sides and • (iii) intermediate toe spread (ITS) the distance between the middle of the second and fourth toe
All measurements were taken both from the experimental (EPL, ETS, EIT) and the normal (NPL, NTS, NIT) side. The formula used to calculate SFI was the following: SFI = −38.3 (EPL − NPL)/NPL + 109.5 (ETS − NTS)/NTS + 13.3 (EIT − NIT)/NIT − 8.8

[6] = single i.p. dose 0.01 mmol/mL/kg, 8 h after surgery

In the case of `CC(=O)Nc1ccc(OC(=O)/C=C/c2cccc(Oc3ccccc3)c2)cc1` [Compound 2a, (E)-4-Acetamidophenyl 3-(3-phenoxyphenyl)acrylate], the “Flat runway score (movement in hindlimb)” value [1] was 3, the “RM (±S.D.)” value [2] was 0.276 ± 0.006 and the “recovering motor and sensory functions” value [3] was “effective in recovering motor and sensory functions”. The pIC50 [4] was 4.00, the “SFI, Day before Crash” value ([5]; baseline before surgery and dosing) was −10.26 and the “SFI, Day-1” value [5, 6] was −93.3. For the same compound, the “SFI, Day-7” value [5, 6] was −93.3, the “SFI, Day-14” value [5, 6] was −35.45 and the “SFI, Day-21” value [5, 6] was −20.06.
